A word on the IC50: it is the point on the concentration scale where inhibition reaches its midpoint. Low readings indicate greater potency in that assay, high ones weaker potency in that assay.

T1 sequence (Q15125 whole entry): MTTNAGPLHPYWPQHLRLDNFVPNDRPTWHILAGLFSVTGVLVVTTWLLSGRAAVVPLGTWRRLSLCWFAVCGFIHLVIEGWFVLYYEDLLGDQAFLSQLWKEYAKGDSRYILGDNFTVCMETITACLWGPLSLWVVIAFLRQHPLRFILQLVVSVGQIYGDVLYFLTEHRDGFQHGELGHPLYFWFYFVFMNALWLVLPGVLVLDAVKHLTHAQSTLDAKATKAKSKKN

The assay has as its target T1, EBP (Homo sapiens, UniProt Q15125).
T1 construct: HEK293T cells were utilized as the source of EBP enzyme; endogenous in cells; host or cells: HEK293T
Put plainly: EBP Functional Assay (EBP immunoaffinity LC-MS assay). The class given is biochemical. As to conditions: HEK293T cells as source of EBP enzyme; 30 min with inhibitor, then zymosterol-d5, 37° C. for 4 h; percent conversion by LC-APCI MRM MS. How it is done: The EBP immunoaffinity (IA) LC-MS assay measures the potency of small molecule inhibitors of EBP by quantifying their concentration-dependent changes in the enzyme's substrate and product using liquid chromatography atmospheric pressure chemical ionization multiple reaction monitoring mass spectrometry (LC-APCI MRM MS). HEK293T cells were utilized as the source of EBP enzyme. The enzyme was incubated with the small molecule inhibitors at variable concentrations for 30 min. Deuterated form of EBP substrate, zymosterol-d5 (Avanti Polar Lipids, Cat #700068P-1 mg), was then added and the plate was incubated at 37° C. for 4 h. Finally, the sterol isomers were extracted and injected to LC-APCI MRM MS. MRM transition used for the quantification for both zymosterol and dihydrolathosterol (substrate and product of EBP enzymatic reaction, respectively) is 372.3-203.2, CE 30 and DP 80 in positive ion mode. Percent conversion of the zymosterol-d5 to dehydrolathosterol-d5 was used to derive IC50 curves. Tasin-1 (1′-[(4-Methoxyphenyl)sulfonyl]-4-methyl-1,4′-bipiperidine, CAS 792927-06-1) was used as the reference small molecule inhibitor. Percent conversion versus the compound concentration data were fit to the following 4-parameter logistic model to generate IC50 curves: […]
`Cc1cc(S(=O)(=O)N2[C@@H]3CC[C@H]2C[C@@H](CN2CCOCC2)C3)n(C)n1` [Example 37, 4-(((1R,3r,5S)-8-((1,3-Dimethyl-1H-pyrazol-5-yl)sulfonyl)-8-azabicyclo[3.2.1]octan-3-yl)methyl)morpholine] returned an IC50 of less than 50 nM.

Take `Cc1noc(C)c1S(=O)(=O)N1[C@@H]2CC[C@H]1C[C@H](CN1CCOCC1)C2` [Example 38, 4-(((1R,3s,5S)-8-((3,5-Dimethylisoxazol-4-yl)sulfonyl)-8-azabicyclo[3.2.1]octan-3-yl)methyl)morpholine]: the IC50 is less than 50 nM.

`Cc1cc(C)c(S(=O)(=O)N2[C@@H]3CC[C@H]2C[C@H](CN2CCOCC2)C3)cn1` [Example 39, 4-(((1R,3s,5S)-8-((4,6-Dimethylpyridin-3-yl)sulfonyl)-8-azabicyclo[3.2.1]octan-3-yl)methyl)morpholine] returned an IC50 of 50 to 150 nM.

Consider `Cc1ccnc(-n2cc(S(=O)(=O)N3[C@@H]4CC[C@H]3C[C@@H](N3CCC(C)CC3)C4)cn2)c1` [Example 40, (1R,3r,5S)-3-(4-methylpiperidin-1-yl)-8-((1-(4-methylpyridin-2-yl)-1H-pyrazol-4-yl)sulfonyl)-8-azabicyclo[3.2.1]octane], for which the IC50 is 150 to 2000 nM.

Turning to `Cc1ccnc(-n2cc(S(=O)(=O)N3[C@@H]4CC[C@H]3C[C@H](N3CCC(C)CC3)C4)cn2)c1` [Example 41, (1R,3s,5S)-3-(4-Methylpiperidin-1-yl)-8-((1-(4-methylpyridin-2-yl)-1H-pyrazol-4-yl)sulfonyl)-8-azabicyclo[3.2.1]octane], the IC50 is less than 50 nM.

For `CC1CCN([C@@H]2C[C@H]3CC[C@@H](C2)N3S(=O)(=O)c2csc(C(F)(F)F)n2)CC1` [Example 42, 4-(((1R,3s,5S)-3-(4-Methylpiperidin-1-yl)-8-azabicyclo[3.2.1]octan-8-yl)sulfonyl)-2-(trifluoromethyl)thiazole], the 50% inhibitory concentration (IC50) is 150 to 2000 nM.

Consider `COc1cc(F)c(S(=O)(=O)N2[C@@H]3CC[C@H]2C[C@H](N2CCC(C)CC2)C3)c(F)c1` [Example 43, (1R,3s,5S)-8-((2,6-Difluoro-4-methoxyphenyl)sulfonyl)-3-(4-methylpiperidin-1-yl)-8-azabicyclo[3.2.1]octane], for which the IC50 was in the range of 50 to 150 nM.

Regarding `CC1CCN([C@@H]2C[C@H]3CC[C@@H](C2)N3S(=O)(=O)c2cn(-c3ccccc3)nn2)CC1` [Example 44, (1R,3s,5S)-3-(4-Methylpiperidin-1-yl)-8-((1-phenyl-1H-1,2,3-triazol-4-yl)sulfonyl)-8-azabicyclo[3.2.1]octane], the IC50 lay in the range of 150 to 2000 nM.

Molecule `Cc1nn(C)c2ncc(S(=O)(=O)N3[C@@H]4CC[C@H]3C[C@H](N3CCC(C)CC3)C4)cc12` [Example 45, 1,3-Dimethyl-5-(((1R,3s,5S)-3-(4-methylpiperidin-1-yl)-8-azabicyclo[3.2.1]octan-8-yl)sulfonyl)-1H-pyrazolo[3,4-b]pyridine] returned an IC50 of 150 to 2000 nM.

The molecule `Cc1cnc(S(=O)(=O)N2[C@@H]3CC[C@H]2C[C@H](N2CCC(C)CC2)C3)c(C)c1` [Example 46, (1R,3s,5S)-8-((3,5-Dimethylpyridin-2-yl)sulfonyl)-3-(4-methylpiperidin-1-yl)-8-azabicyclo[3.2.1]octane] had an IC50 of 150 to 2000 nM.

The molecule `Cc1ccc(S(=O)(=O)N2[C@@H]3CC[C@H]2C[C@H](N2CCC(C)CC2)C3)c(C)n1` [Example 47, (1R,3s,5S)-8-((2,6-Dimethylpyridin-3-yl)sulfonyl)-3-(4-methylpiperidin-1-yl)-8-azabicyclo[3.2.1]octane] displayed a 50% inhibitory concentration (IC50) of 50 to 150 nM.

As to `CC(O)CNC1CC2CCC(C1)N2S(=O)(=O)c1ccc(OC(F)F)cc1` (stereo not drawn) [Example 48, 1-((8-((4-(Difluoromethoxy)phenyl)sulfonyl)-8-azabicyclo[3.2.1]octan-3-yl)amino)propan-2-ol], the IC50 lay in the range of 150 to 2000 nM.

Take `CC1(O)CCN(C2CC3CCC(C2)N3S(=O)(=O)c2ccc(OC(F)F)cc2)C1` (stereo not drawn) [Example 49, 1-(8-((4-(Difluoromethoxy)phenyl)sulfonyl)-8-azabicyclo[3.2.1]octan-3-yl)-3-methylpyrrolidin-3-ol]: the IC50 fell in the range of 50 to 150 nM.

For the molecule `COC1CCN(C2CC3CCC(C2)N3S(=O)(=O)c2ccc(OC(F)F)cc2)C1` (stereo not drawn) [Example 50, 8-((4-(Difluoromethoxy)phenyl)sulfonyl)-3-(3-methoxypyrrolidin-1-yl)-8-azabicyclo[3.2.1]octane], the IC50 lay in the range of 50 to 150 nM.

As for `O=S(=O)(c1ccc(OC(F)F)cc1)N1C2CCC1CC(N1CCC3(COC3)C1)C2` (stereo not drawn) [Example 51, 6-(8-((4-(Difluoromethoxy)phenyl)sulfonyl)-8-azabicyclo[3.2.1]octan-3-yl)-2-oxa-6-azaspiro[3.4]octane], the IC50 was 150 to 2000 nM.

Regarding `COCCC(C)NC1CC2CCC(C1)N2S(=O)(=O)c1ccc(OC(F)F)cc1` (stereo not drawn) [Example 52, 8-((4-(Difluoromethoxy)phenyl)sulfonyl)-N-(4-methoxybutan-2-yl)-8-azabicyclo[3.2.1]octan-3-amine], the IC50 was less than 50 nM.

For `O=S(=O)(c1ccc(OC(F)F)cc1)N1C2CCC1CC(N1C3CCCC1CC3)C2` (stereo not drawn) [Example 53, 8-((4-(Difluoromethoxy)phenyl)sulfonyl)-8,8′-diaza-3,8′-bi(bicyclo[3.2.1]octane)], the IC50 is 50 to 150 nM.

Consider `COCCC1CN(C2CC3CCC(C2)N3S(=O)(=O)c2ccc(OC(F)F)cc2)C1` (stereo not drawn) [Example 54, 8-((4-(Difluoromethoxy)phenyl)sulfonyl)-3-(3-(2-methoxyethyl)azetidin-1-yl)-8-azabicyclo[3.2.1]octane], for which the IC50 was in the range of 150 to 2000 nM.

`COC(C)C(C)NC1CC2CCC(C1)N2S(=O)(=O)c1ccc(OC(F)F)cc1` (stereo not drawn) [Example 55, 8-((4-(Difluoromethoxy)phenyl)sulfonyl)-N-(3-methoxybutan-2-yl)-8-azabicyclo[3.2.1]octan-3-amine]: the IC50 was less than 50 nM.

`O=S(=O)(c1ccc(OC(F)F)cc1)N1C2CCC1CC(N1CC3CC(C3)C1)C2` (stereo not drawn) [Example 57, 3-(8-((4-(Difluoromethoxy)phenyl)sulfonyl)-8-azabicyclo[3.2.1]octan-3-yl)-3-azabicyclo[3.1.1]heptane] showed an IC50 of 50 to 150 nM.

`O=S(=O)(c1ccc(OC(F)F)cc1)N1C2CCC1CC(N1CC3CCC(C3)C1)C2` (stereo not drawn) [Example 58, 8′-((4-(Difluoromethoxy)phenyl)sulfonyl)-3,8′-diaza-3,3′-bi(bicyclo[3.2.1]octane)]: the IC50 was less than 50 nM.

Molecule `CN(C1CCOCC1)[C@H]1C[C@H]2CC[C@@H](C1)N2S(=O)(=O)c1ccc(OC(F)F)cc1` [Example 65, (1R,3r,5S)-8-((4-(difluoromethoxy)phenyl)sulfonyl)-N-methyl-N-(tetrahydro-2H-pyran-4-yl)-8-azabicyclo[3.2.1]octan-3-amine] returned an IC50 of less than 50 nM.

In turn, `CN(C1CCOCC1)[C@@H]1C[C@H]2CC[C@@H](C1)N2S(=O)(=O)c1ccc(OC(F)F)cc1` [Example 66, (1R,3s,5S)-8-((4-(difluoromethoxy)phenyl)sulfonyl)-N-methyl-N-(tetrahydro-2H-pyran-4-yl)-8-azabicyclo[3.2.1]octan-3-amine] yielded an IC50 of 150 to 2000 nM.

The molecule `O=S(=O)(c1ccc(OC(F)F)cc1)N1[C@@H]2CC[C@H]1C[C@H](CN1CCOCC1)C2` [Example 67, 4-(((1R,3s,5S)-8-((4-(Difluoromethoxy)phenyl)sulfonyl)-8-azabicyclo[3.2.1]octan-3-yl)methyl)morpholine] showed an IC50 of less than 50 nM.
